According to the CheMixHub viscosity set:
Several values for one entry are separate records, joined by “and”; a condition that tells them apart may be missing. Identical values can stand only once.

Experiment: xn = mol fraction of the nth substance listed

Clc1ccccc1 + COC(C)(C)C
viscosity [mPa·s], 101.33 kPa
Conditions	x2 = 0.0948	x2 = 0.1898	x2 = 0.2929	x2 = 0.3832	x2 = 0.4974	x2 = 0.6209	x2 = 0.7014	x2 = 0.8089	x2 = 0.9102
293.15 K	0.7752	0.7379	0.6754	0.6443	0.5825	0.5368	0.4905	0.456	0.4191
298.15 K	0.7335	0.6981	0.6506	0.6036	0.5697	0.5019	0.4658	0.4246	0.3945

CCCCn1cc[n+](C)c1.F[P-](F)(F)(F)(F)F + Cc1ccccc1
Conditions	viscosity [mPa·s]
310.65 K, 101 kPa, x1 = 0.8	31.65

Clc1cccc2ccccc12 + CCCO
viscosity [mPa·s], 101.33 kPa
Conditions	x1 = 0.1004	x1 = 0.2017	x1 = 0.2983	x1 = 0.395	x1 = 0.5003	x1 = 0.6002	x1 = 0.6993	x1 = 0.7991	x1 = 0.9003
298.15 K	1.968	2.039	2.091	2.172	2.255	2.349	2.448	2.567	2.716
303.15 K	1.745	1.805	1.854	1.918	1.999	2.077	2.166	2.275	2.417
308.15 K	1.57	1.62	1.672	1.714	1.789	1.86	1.943	2.043	2.178

Clc1ccccc1 + CN(C)C=O
viscosity [mPa·s], 101.33 kPa
Conditions	x2 = 0.1076	x2 = 0.2986	x2 = 0.397	x2 = 0.5024	x2 = 0.6054	x2 = 0.7013	x2 = 0.7925	x2 = 0.8973
303.15 K	0.731	0.76	0.767	–	0.773	0.774	0.771	0.754
313.15 K	–	–	0.69	0.694	0.695	0.694	0.688	–

CC(O)C(=O)O (configuration not stated) + C[N+](C)(C)CCO.[Cl-]
viscosity
Conditions	100 kPa	101 kPa
293.15 K, x2 = 0.1	92.67 mPa·s	–
293.15 K, x2 = 0.1667	107.5 mPa·s	–
293.15 K, x2 = 0.3333	229.3 mPa·s	–
293.15 K, x2 = 0.5	527 mPa·s	–
300.15 K, x2 = 0.1	52.02 mPa·s	–
300.15 K, x2 = 0.1667	59.99 mPa·s	–
300.15 K, x2 = 0.3333	127 mPa·s	–
300.15 K, x2 = 0.5	276.9 mPa·s	–
303.15 K, x2 = 0.5	–	1245 mPa·s
308.15 K, x2 = 0.5	–	877.3 mPa·s
313.15 K, x1 = 0.57	–	267.5 mPa·s
313.15 K, x1 = 0.9	–	103.5 mPa·s
313.15 K, x1 = 0.94	–	103.5 mPa·s
313.15 K, x2 = 0.1	31.27 mPa·s	–
313.15 K, x2 = 0.1667	35.62 mPa·s	–
313.15 K, x2 = 0.3333	79.44 mPa·s	–
313.15 K, x2 = 0.5	157.6 mPa·s	626.3 mPa·s
318.15 K, x2 = 0.5	–	452.1 mPa·s
323.15 K, x2 = 0.1	20.21 mPa·s and 20.21 mPa·s	–
323.15 K, x2 = 0.1667	23.07 mPa·s	–
323.15 K, x2 = 0.3333	51 mPa·s	–
323.15 K, x2 = 0.5	97.82 mPa·s	335.1 mPa·s
